Reference: US20250326708A1, “LONG-ACTING SPLEEN-TARGETING CATIONIC LIPID COMPOUND COMPRISING BENZENE RING STRUCTURE, COMPOSITION COMPRISING SAME, AND USE THEREOF” (Beijing Youcarekechuang Pharmaceutical Technology Co., Ltd., priority 2024, published 2025)
“And” between values parts separate entries of the source, which are not always exact repeats. Equal values may be shown once.

Key:
female BALB/C mice [1] = test: Expression of delivered mRNA in mice in vivo (IVIS in vivo imaging); details: 10 μg Fluc-mRNA via tail vein
Method: LNP preparations containing 10 μg of Fluc-mRNA were injected via the tail vein into female BALB/C mice (4 to 6 weeks old, weighing 17 to 19 g). At specified time points after administration (6 h, 24 h, 48 h, and 7 d), the mice were intraperitoneally injected with fluorescent imaging substrates and allowed to move freely for 5 minutes. The average radiation intensity (corresponding to fluorescence intensity) of proteins expressed by the mRNA delivered by the LNP preparations in the mice in vivo was then detected using the IVIS Spectrum small-animal in vivo imaging system.

female BALB/C mice [2] = test: Expression of delivered mRNA in different organs of mice (organ imaging); format: in vivo
Method: LNP preparations containing 5 μg of Fluc-mRNA were subcutaneously injected into female BALB/C mice (4 to 6 weeks old, weighing 17 to 19 g). At specified time points after administration (6 h), the mice were intraperitoneally injected with fluorescent imaging substrates and allowed to move freely for 5 minutes. The average radiation intensity (corresponding to fluorescence intensity) of proteins expressed by the mRNA delivered by the LNP preparations in the mice in vivo was then detected using the IVIS Spectrum small-animal in vivo imaging system. After sampling, the mice were killed by cervical dislocation and dissected, and the internal organs: heart, liver, spleen, lung, kidney, and lymph of mice were accurately isolated. The average radiation intensity (corresponding to fluorescence intensity) of proteins expressed by the mRNA delivered by the LNP preparations in various organs of mice was then detected using the IVIS Spectrum small-animal in vivo imaging system.

293T cells [3] = test: Fluorescence detection of Fluc-mRNA (transfection efficiency) of LNP preparations; format: cell-based
Method: (§1) Cell recovery and passage: 293T cells were recovered and cultured in culture dishes. The cells were passaged until the required number of cells was obtained.
(§2) Seeding plates: The cells in culture dishes were digested and counted, then seeded in a 96-well plate at 10,000 cells per well and seeded in a 12-well plate at 150,000 cells per well. The cells were cultured overnight until cell adhesion.
(§3) The cationic lipids listed in Table 2 were each mixed with DSPC (AVT (Shanghai) Pharmaceutical Technology Co., Ltd.), cholesterol (AVT (Shanghai) Pharmaceutical Technology Co., Ltd.), and DMG-PEG2000 in a molar ratio of 49:10:39.5:1.5 and dissolved in ethanol to prepare ethanol lipid solutions. Using the ethanol injection method, the ethanol lipid solutions were quickly added to a citrate buffer (pH between 4 and 5), and vortexed for 30 seconds for later use. eGFP-mRNA (purchased from Shanghai BioHub Biotechnology Co., Ltd.), Fluc-mRNA (purchased from Shanghai BioHub Biotechnology Co., Ltd.), or Cy5 fluorescently labeled Leqvio (purchased from Sangon Biotech (Shanghai) Co., Ltd.) was diluted in a citrate buffer (pH between 4 and 5) to obtain an mRNA aqueous solution. A certain volume of the lipid solution and the mRNA aqueous solution were mixed to prepare liposomes at a total lipid-to-mRNA weight ratio of 15:1. The mixtures were sonicated at 25° C. for 15 minutes (ultrasonic frequency: 40 kHz, ultrasonic power: 800 W). The resulting liposomes were diluted 10-fold with PBS, followed by ultrafiltration using a 300 kDa ultrafiltration tube to remove ethanol. After adjusting the volume with PBS, LNP preparations encapsulating eGFP-mRNA or Fluc-mRNA were obtained, using cationic lipids, DSPC, cholesterol, and DMG-PEG2000 at a molar ratio of 49:10:39.5:1.5.
(§4) Cell recovery and passage: The method was the same as described in Example 3.
(§5) Seeding plates: The method was the same as described in Example 3.
LNP preparations containing 0.3 μg of Fluc-mRNA (with the vector components of the LNP preparations of cationic lipids, DSPC, cholesterol, and DMG-PEG2000 in a molar ratio of 49:10:39.5:1.5, where the cationic lipids are those listed in Table 1) were added to the cell culture medium in a 96-well plate. After 24 hours of continued culture, the corresponding reagents were added according to the instructions in the Gaussia Luciferase Assay Kit. Fluorescence intensity in each well was detected using the IVIS fluorescence detection system. The transfection efficiency of LNP preparations prepared with a series of cationic lipid compounds designed in the present disclosure, as well as cationic lipids from the prior art, including SM-102, HHMA, MC3, compound 7, and I-1, is shown in Table 4.

293T cells [4] = test: Cell viability assay (CCK-8) with LNP preparations of Fluc-mRNA; format: cell-based; details: for Cell viability: LNP with 1.5 μg Fluc-mRNA, 24 hours, CCK-8
Method: as §1, §2, §3, §4, §5
LNP preparations containing 1.5 μg of Fluc-mRNA (with the vector components of the LNP preparations of cationic lipids, DSPC, cholesterol, and DMG-PEG2000 in a molar ratio of 49:10:39.5:1.5, where the cationic lipids are those listed in Table 1) were added to the cell culture medium in a 96-well plate. After 24 hours of continued culture, 10 μL of CCK-8 solution was added to each well, and the culture plate was incubated in an incubator for 1 hour.

[5] = Particle size and polydispersity index (PDI) of lipid nanoparticles, dynamic light scattering; format: physicochemical; details: LNP preparation with the named cationic lipid; 90° scattering angle, 25° C
Source text: as §3
The particle size and polydispersity index (PDI) were measured using dynamic light scattering with a Malvern laser diffraction particle size analyzer.
10 μL of liposome solution was diluted to 1 mL with RNase-free deionized water and added to the sample cell. Each sample was measured three times. The measurement conditions were as follows: 90° scattering angle, 25° C.

[6] = 6 hours after 5 μg Fluc-mRNA subcutaneously

With `CCCCCCCCCCC(CCCCCCCC)COC(=O)CCCCCNC(CO)(CO)CCc1ccc(CCCCCCCC)cc1` (stereo not shown) [YK-912, 2-octyldodecyl 6-((1-hydroxy-2-(hydroxymethyl)-4-(4-octylphenyl)butan-2-yl)amino) hexanoate] the “Average radiation intensity, in vivo imaging” value (female BALB/C mice [1]; 6 h) was 7543664, the “Average radiation intensity, in vivo imaging” value (female BALB/C mice [1]; 24 h) was 932533 and the “Average radiation intensity, in vivo imaging” value (female BALB/C mice [1]; 48 h) was 354363. The “Average radiation intensity, in vivo imaging” value (female BALB/C mice [1]; 7 d) was 56756, the “Average radiation intensity of mouse organs: Heart” value (female BALB/C mice [2]; [6]) was 0 and the “Average radiation intensity of mouse organs: Kidney” value (female BALB/C mice [2]; [6]) was 0. The “Average radiation intensity of mouse organs: Lung” value (female BALB/C mice [2]; [6]) was 0, the “Average radiation intensity of mouse organs: Lymph” value (female BALB/C mice [2]; [6]) was 0 and the “Average radiation intensity of mouse organs: Spleen” value (female BALB/C mice [2]; [6]) was 175366. For the same compound, the “Expression level of mRNA in the spleen, times that of SM-102” value (female BALB/C mice [2]; spleen, 6 h, vs SM-102) was 6.86 times, the “Expression level of mRNA in the spleen, times that of YK-501” value (female BALB/C mice [2]; spleen, 6 h, vs YK-501) was 12.33 times and the “Expression level of mRNA in the spleen, times that of YK-506” value (female BALB/C mice [2]; spleen, 6 h, vs YK-506) was 2.46 times. The “Cellular transfection efficiency, times that of HHMA” value (293T cells [3]; Fluc-mRNA LNP, vs HHMA) was 5.65 times, the “Cellular transfection efficiency, times that of I-1” value (293T cells [3]; Fluc-mRNA LNP, vs I-1) was 28.16 times and the “Cellular transfection efficiency, times that of Lipofectamine 3000” value (293T cells [3]; Fluc-mRNA LNP, vs Lipofectamine 3000) was 6.77 times. The “Cellular transfection efficiency, times that of MC3” value (293T cells [3]; Fluc-mRNA LNP, vs MC3) was 60.16 times, the “Cellular transfection efficiency, times that of SM-102” value (293T cells [3]; Fluc-mRNA LNP, vs SM-102) was 4.00 times and the “Cellular transfection efficiency, times that of YK-501” value (293T cells [3]; Fluc-mRNA LNP, vs YK-501) was 123.46 times. The “Cellular transfection efficiency, times that of YK-506” value (293T cells [3]; Fluc-mRNA LNP, vs YK-506) was 8.73 times, the “Cellular transfection efficiency, times that of YK-901” value (293T cells [3]; Fluc-mRNA LNP, vs YK-901) was 131 times and 131.47 times and the “Cellular transfection efficiency, times that of YK-902” value (293T cells [3]; Fluc-mRNA LNP, vs YK-902) was 18.35 times. For the same compound, the “Cellular transfection efficiency, times that of YK-903” value (293T cells [3]; Fluc-mRNA LNP, vs YK-903) was 228 times and 228.30 times, the “Cellular transfection efficiency, times that of YK-904” value (293T cells [3]; Fluc-mRNA LNP, vs YK-904) was 45.65 times and the “Cellular transfection efficiency, times that of YK-905” value (293T cells [3]; Fluc-mRNA LNP, vs YK-905) was 78.83 times. The “Cellular transfection efficiency, times that of YK-911” value (293T cells [3]; Fluc-mRNA LNP, vs YK-911) was 4.39 times, the “Cellular transfection efficiency, times that of compound 7” value (293T cells [3]; Fluc-mRNA LNP, vs compound 7) was 22.17 times and the Cell viability (293T cells [4]) was 87%. The “Cell viability higher than that of YK-901” value (293T cells [4]; difference vs YK-901) was 29%, the “Cell viability higher than that of YK-902” value (293T cells [4]; difference vs YK-902) was 51% and the “Cell viability higher than that of YK-903” value (293T cells [4]; difference vs YK-903) was 40%. For the same compound, the “Cell viability higher than that of YK-904” value (293T cells [4]; difference vs YK-904) was 35%, the “Cell viability higher than that of YK-905” value (293T cells [4]; difference vs YK-905) was 36% and the “Cell viability higher than that of YK-911” value (293T cells [4]; difference vs YK-911) was 25%. It also gave a PDI [5] of 9.5% and a Particle size [5] of 123 nm.

For `CCCCCCCCCCOC(=O)CCCN1CCN(CCCCCC(=O)OCC(CCCCCCC)CCCCCCCC)CC1` (stereo not shown) [YK-501, reference compound], the “Average radiation intensity, in vivo imaging” value (female BALB/C mice [1]; 6 h) was 346241, the “Average radiation intensity, in vivo imaging” value (female BALB/C mice [1]; 24 h) was 174776 and the “Average radiation intensity, in vivo imaging” value (female BALB/C mice [1]; 48 h) was 55543. For the same compound, the “Average radiation intensity, in vivo imaging” value (female BALB/C mice [1]; 7 d) was 5634, the “Average radiation intensity of mouse organs: Heart” value (female BALB/C mice [2]; [6]) was 0 and the “Average radiation intensity of mouse organs: Kidney” value (female BALB/C mice [2]; [6]) was 0. The “Average radiation intensity of mouse organs: Liver” value (female BALB/C mice [2]; [6]) was 3334, the “Average radiation intensity of mouse organs: Lung” value (female BALB/C mice [2]; [6]) was 0 and the “Average radiation intensity of mouse organs: Lymph” value (female BALB/C mice [2]; [6]) was 0. The “Average radiation intensity of mouse organs: Spleen” value (female BALB/C mice [2]; [6]) was 14224, the “Relative light unit (RLU)” value (293T cells [3]; LNP with 0.3 μg Fluc-mRNA, 96-well plate, 24 hours) was 46243 RLU and the Cell viability (293T cells [4]) was 63%. For the same compound, the PDI [5] was 13.3% and the Particle size [5] was 144 nm.
